Measured values reported in US20110039763A1, “TARGETED ANTIMICROBIAL MOIETIES” (C3 JIAN, INC., priority 2009, published 2011).
“Also recorded” adds a separate entry of the source.

Key:
microorganisms [1] = assay: Peptide activities: targeting/binding, antimicrobial, growth or phenotype altering (Tables 7, 8); assay type: cell-based; details: peptides having multiple activities
microorganisms [2] = assay: Targeting peptide binding to target microorganisms (Tables 3, 10, 12); details: microorganism(s) the targeting peptide binds; binding in aqueous buffers varied with peptide solubility, preferably 1x PBS
microorganisms [3] = assay: Morphology, biofilm and growth disrupting peptides (Table 5); assay type: cell-based; parameters: key: A: Peptide aggregates; B: Less hyphal formation; Clumps; Diffuse clumps and small polyps; F: Diffuse growth; H: Thin; I: Growth inhibition; Microcolony formation; Rippled; Small polyps; Thick; W: Halo formation on top, microlonies on bottom
Description: In certain embodiments peptides that induce alterations in phenotype or other biological activities can also be used as antimicrobial effector moieties.

Row | Substance | Activities (microorganisms [1]) | Target(s) (microorganisms [2]) | Organism, effect: M. luteus (microorganisms [3]) | Organism, effect: C. jeikeium (microorganisms [3]) | Organism, effect: S. epidermidis (microorganisms [3]) | also measured
1 | PF-175: peptide having multiple activities (RRRPAGQRPEKASQAMIAA; Peptide with targeting and/or antimicrobial activity) | G B | S. epidermidis; also recorded: E. faecalis | M. luteus (S) | – | – | Organism, effect: B. subtilis (microorganisms [3]; B. subtilis): B. subtilis (D); Organism, effect: C. albicans (microorganisms [3]; C. albicans): C. albicans (B); Organism, effect: C. jejuni (microorganisms [3]; C. jejuni): C. jejuni (M); Organism, effect: S. pneumoniae (microorganisms [3]; S. pneumoniae): S. pneumoniae (A)
2 | PF-176: peptide having multiple activities (RLTSNQFLTRITPFVFAQH; Peptide with targeting and/or antimicrobial activity) | G B | S. epidermidis and M. luteus and P. mirabilis and E. coli and C. albicans and MRSA and E. faecalis and C. jeikeium | M. luteus (C) | C. jeikeium (D) | S. epidermidis (C) | –
3 | PF-180: peptide having multiple activities (SGLGDLGFSSEAK; Peptide with targeting and/or antimicrobial activity) | G B | S. epidermidis and M. luteus and P. aeruginosa and C. albicans and MRSA and E. faecalis and C. jejuni and M. smegmatis | – | – | S. epidermidis (C) | –
4 | PF-186: peptide having multiple activities (DADKNLSLERDRFAWRVAAP; Peptide with targeting and/or antimicrobial activity) | G B | S. epidermidis and M. luteus and E. coli and P. aeruginosa and MRSA and C. jeikeium | – | C. jeikeium (A) | S. epidermidis (C) | –
5 | PF-188: peptide having multiple activities (ARTFAGRLGTRYFGGLMRSTKA; Peptide with targeting and/or antimicrobial activity) | G B | S. epidermidis and M. luteus and E. coli and C. albicans and MRSA and E. faecalis | – | C. jeikeium (H) | – | –
6 | PF-191: peptide having multiple activities (QFCNFAWLFLASNNAQVSALA; Peptide with targeting and/or antimicrobial activity) | G B | E. coli; also recorded: P. aeruginosa; also recorded: C. jejuni | – | C. jeikeium (R) | S. epidermidis (A) | Organism, effect: MRSA (microorganisms [3]; MRSA): MRSA (H)
7 | PF-192: peptide having multiple activities (VEEDEAPPPHY; Peptide with targeting and/or antimicrobial activity) | G B | S. epidermidis; also recorded: M. luteus; also recorded: P. aeruginosa; also recorded: C. albicans; also recorded: E. faecalis; also recorded: C. jeikeium | – | – | S. epidermidis (D) | –
8 | PF-204: peptide having multiple activities (ALQKQDMNLPSVKNQLVFLKSTG; Peptide with targeting and/or antimicrobial activity) | G B | S. epidermidis; also recorded: P. mirabilis; also recorded: E. coli; also recorded: P. aeruginosa; also recorded: C. albicans; also recorded: C. jejuni | M. luteus (C) | C. jeikeium (D) | S. epidermidis (C) | Organism, effect: P. aeruginosa (microorganisms [3]; P. aeruginosa): P. aeruginosa (H)
9 | PF-208: peptide having multiple activities (DAYHCHLVRSPDAHDLSMRIGFV; Peptide with targeting and/or antimicrobial activity) | G B | S. epidermidis and C. albicans and MRSA and S. pneumoniae and E. faecalis and C. jeikeium and C. jejuni | – | C. jeikeium (A) | S. epidermidis (D) | –
10 | PF-212: peptide having multiple activities (NDSKASN; Peptide with targeting and/or antimicrobial activity) | G B | M. luteus; also recorded: P. aeruginosa | M. luteus (M) | – | – | –
11 | PF-215: peptide having multiple activities (ELKITNYNVNTVLYRYYKWGNDLCE; Peptide with targeting and/or antimicrobial activity) | G B | S. epidermidis; also recorded: M. luteus; also recorded: P. aeruginosa; also recorded: A. baumannii | M. luteus (T) | – | – | –
12 | PF-224: peptide having multiple activities (DYFYITLSQKNTF; Peptide with targeting and/or antimicrobial activity) | G B | S. epidermidis; also recorded: P. aeruginosa; also recorded: A. baumannii | M. luteus (T) | – | – | –
13 | PF-233: peptide having multiple activities (DANAMARTTIAIVYILALIALTISYSL; Peptide with targeting and/or antimicrobial activity) | G B | S. epidermidis; also recorded: M. luteus; also recorded: P. aeruginosa; also recorded: A. baumannii | – | – | S. epidermidis (C) | –
14 | PF-234: peptide having multiple activities (RTPYILRS; Peptide with targeting and/or antimicrobial activity) | G B | S. epidermidis; also recorded: M. luteus | M. luteus (T) | – | – | –
15 | PF-235: peptide having multiple activities (GIPFSKPHKRQVNYMKSDVLAYIEQNKMAHTA; Peptide with targeting and/or antimicrobial activity) | G B | S. epidermidis; also recorded: M. luteus | M. luteus (T) | – | – | –
16 | PF-249: peptide having multiple activities (chain 1 INSRYKISF; chain 2 INSRYKISF; Peptide with targeting and/or antimicrobial activity) | G B | S. epidermidis; also recorded: M. luteus | M. luteus (R) | – | – | –
17 | PF-255: peptide having multiple activities (chain 1 DHKINESQHNPFRSDSNKQNVDFF; chain 2 DHKINESQHNPFRSDSNKQNVDFF; Peptide with targeting and/or antimicrobial activity) | G B | P. aeruginosa | M. luteus (M) | – | – | –
18 | PF-271: peptide having multiple activities (chain 1 AAQPQTTSP; chain 2 AAQPQTTSP; Peptide with targeting and/or antimicrobial activity) | G B | S. epidermidis; also recorded: M. luteus; also recorded: P. aeruginosa; also recorded: A. baumannii | M. luteus (T) | – | – | –
19 | PF-273: peptide having multiple activities (chain 1 LVGALLIFVALIYMVLKGNADKN; chain 2 LVGALLIFVALIYMVLKGNADKN; Peptide with targeting and/or antimicrobial activity) | G B | S. epidermidis; also recorded: M. luteus; also recorded: P. aeruginosa; also recorded: A. baumannii | – | – | S. epidermidis (C) | –
